Assay results reported in US5441941A, “1,2-dihydroellipticines with activity against CNS specific cancer” (The United States of America as represented by the …, priority 1993, dated 1995).

Key:
KM20L2 = assay: cells; conditions: Homo sapiens
KM12 = assay: NCI in vitro screen, SRB percent growth, Colon Cancer
M14 = assay: NCI in vitro screen, SRB percent growth, Melanoma
HOP-62 = assay: NCI in vitro screen, SRB percent growth, Non-Small Cell Lung Cancer
SNB-75 = assay: NCI in vitro screen, SRB percent growth, CNS Cancer
XF 498 = assay: as above
786-0 = assay: cells; conditions: Homo sapiens
SK-MEL-28 = assay: NCI in vitro screen, SRB percent growth, Melanoma
CCRF-CEM = assay: NCI in vitro screen, SRB percent growth, Leukemia
MOLT-4 = assay: cells; conditions: Homo sapiens
LOX IMVI = assay: NCI in vitro screen, SRB percent growth, Melanoma
UACC-257 = assay: NCI in vitro screen, SRB percent growth, Melanoma
RXF-631 = assay: NCI in vitro screen, SRB percent growth, Renal Cancer
Human tumor cell lines = assay: NCI in vitro screen, overall result; conditions: Tables I and II
SF-539 = assay: NCI in vitro screen, SRB percent growth, CNS Cancer
OVCAR-3 = assay: NCI in vitro screen, SRB percent growth, Ovarian Cancer
UACC-62 = assay: NCI in vitro screen, SRB percent growth, Melanoma
[1] = KM-20L2, read-out: Percent Growth
[2] = Log10 Concentration -4.0, 100 µM
[3] = Log10 Concentration -7.0, 0.1 µM
[4] = 786-0, read-out: Percent Growth
[5] = MOLT-4, read-out: Percent Growth

Compound COc1ccc2[nH]c3c(C)c4c(c(C)c3c2c1)CN(C)C=C4 [Formula VII] has a GI50 (KM20L2; KM-20L2) of 3.63 µM, a CC50 (KM20L2; KM-20L2, read-out: LC-50) greater than 100 µM and an activity at 0.01 µM (KM20L2; [1]) of 106%. It also gave an activity at 0.1 µM (KM20L2; [1]) of 104%, an activity at 1 µM (KM20L2; [1]) of 82% and an activity at 10 µM (KM20L2; [1]) of 25%. For the same compound, the activity at 100 µM (KM20L2; [1]) was -34%, the IC (TGI) (KM20L2; KM-20L2, read-out: TGI) was 26.4 µM and the “Percent Growth” value (KM12; [2]) was -86%. The “Percent Growth” value (KM12; Log10 Concentration -6.0, 1 µM) was 28%, the “Percent Growth” value (KM12; [3]) was 59% and the “Percent Growth” value (KM12; Log10 Concentration -8.0) was 78%. The TGI (KM12; PG=0) was 2.32 µM, the GI50 (KM12; PG=+50) was 0.194 µM and the CC50 (KM12; read-out: LC-50, PG=-50) was 10.6 µM. The “Percent Growth” value (M14; [2]) was -98%, the “Percent Growth” value (M14; Log10 Concentration -5.0) was 40% and the “Percent Growth” value (M14; Log10 Concentration -6.0, 1 µM) was 103%. The “Percent Growth” value (M14; [3]) was 111%, the “Percent Growth” value (M14; Log10 Concentration -8.0) was 99% and the TGI (M14; PG=0) was 19.6 µM. The GI50 (M14; PG=+50) was 7.01 µM, the CC50 (M14; read-out: LC-50, PG=-50) was 45.2 µM and the “Percent Growth” value (HOP-62; [2]) was -81%. For the same compound, the “Percent Growth” value (HOP-62; Log10 Concentration -5.0) was -57%, the “Percent Growth” value (HOP-62; Log10 Concentration -6.0, 1 µM) was 14% and the “Percent Growth” value (HOP-62; [3]) was 106%. The “Percent Growth” value (HOP-62; Log10 Concentration -8.0) was 115%, the TGI (HOP-62; PG=0) was 1.58 µM and the GI50 (HOP-62; PG=+50) was 0.406 µM. For the same compound, the CC50 (HOP-62; read-out: LC-50, PG=-50) was 7.89 µM, the “Percent Growth” value (SNB-75; [2]) was -58% and the “Percent Growth” value (SNB-75; Log10 Concentration -5.0) was -78%. The “Percent Growth” value (SNB-75; Log10 Concentration -6.0, 1 µM) was -53%, the “Percent Growth” value (SNB-75; [3]) was 86% and the “Percent Growth” value (SNB-75; Log10 Concentration -8.0) was 126%. The TGI (SNB-75; PG=0) was 0.416 µM, the CC50 (SNB-75; read-out: LC-50, PG=-50) was 0.953 µM and the “Percent Growth” value (XF 498; [2]) was -60%. The “Percent Growth” value (XF 498; Log10 Concentration -5.0) was -25%, the “Percent Growth” value (XF 498; Log10 Concentration -6.0, 1 µM) was 81% and the “Percent Growth” value (XF 498; [3]) was 140%. The “Percent Growth” value (XF 498; Log10 Concentration -8.0) was 174%, the TGI (XF 498; PG=0) was 5.82 µM and the GI50 (XF 498; PG=+50) was 1.97 µM. It also gave a CC50 (XF 498; read-out: LC-50, PG=-50) of 52.7 µM, a GI50 (786-0; 786-0) of 0.0408 µM and a CC50 (786-0; 786-0, read-out: LC-50) of 66.7 µM. The activity at 0.01 µM (786-0; [4]) was 69%, the activity at 0.1 µM (786-0; [4]) was 38% and the activity at 1 µM (786-0; [4]) was 3%. It also gave an activity at 10 µM (786-0; [4]) of -20%, an activity at 100 µM (786-0; [4]) of -56% and an IC (TGI) (786-0; 786-0, read-out: TGI) of 1.3 µM. For the same compound, the “Percent Growth” value (SK-MEL-28; [2]) was -75%, the “Percent Growth” value (SK-MEL-28; Log10 Concentration -5.0) was 4% and the “Percent Growth” value (SK-MEL-28; Log10 Concentration -6.0, 1 µM) was 91%. The “Percent Growth” value (SK-MEL-28; [3]) was 105%, the “Percent Growth” value (SK-MEL-28; Log10 Concentration -8.0) was 101% and the TGI (SK-MEL-28; PG=0) was 11.3 µM. The GI50 (SK-MEL-28; PG=+50) was 2.95 µM, the CC50 (SK-MEL-28; read-out: LC-50, PG=-50) was 48.6 µM and the “Percent Growth” value (CCRF-CEM; [2]) was -10%. For the same compound, the “Percent Growth” value (CCRF-CEM; Log10 Concentration -5.0) was 29%, the “Percent Growth” value (CCRF-CEM; Log10 Concentration -6.0, 1 µM) was 78% and the “Percent Growth” value (CCRF-CEM; [3]) was 92%. It also gave a TGI (CCRF-CEM; PG=0) of 54.5 µM, a GI50 (CCRF-CEM; PG=+50) of 3.65 µM and a CC50 (CCRF-CEM; read-out: LC-50, PG=-50) greater than 100 µM. The GI50 (MOLT-4; MOLT-4) was 0.3 µM, the CC50 (MOLT-4; MOLT-4, read-out: LC-50) was greater than 100 µM and the activity at 0.01 µM (MOLT-4; [5]) was 110%. For the same compound, the activity at 0.1 µM (MOLT-4; [5]) was 68%, the activity at 1 µM (MOLT-4; [5]) was 30% and the activity at 10 µM (MOLT-4; [5]) was 8%. The activity at 100 µM (MOLT-4; [5]) was -27%, the IC (TGI) (MOLT-4; MOLT-4, read-out: TGI) was 16.7 µM and the “Percent Growth” value (LOX IMVI; [2]) was -19%. The “Percent Growth” value (LOX IMVI; Log10 Concentration -5.0) was 58%, the “Percent Growth” value (LOX IMVI; Log10 Concentration -6.0, 1 µM) was 119% and the “Percent Growth” value (LOX IMVI; Log10 Concentration -8.0) was 129%. It also gave a TGI (LOX IMVI; PG=0) of 56.9 µM, a GI50 (LOX IMVI; PG=+50) of 12.8 µM and a CC50 (LOX IMVI; read-out: LC-50, PG=-50) greater than 100 µM. For the same compound, the “Percent Growth” value (UACC-257; [2]) was -5%, the “Percent Growth” value (UACC-257; Log10 Concentration -6.0, 1 µM) was 108% and the “Percent Growth” value (UACC-257; [3]) was 113%. The “Percent Growth” value (UACC-257; Log10 Concentration -8.0) was 110%, the TGI (UACC-257; PG=0) was 80.7 µM and the GI50 (UACC-257; PG=+50) was 9.63 µM. The CC50 (UACC-257; read-out: LC-50, PG=-50) was greater than 100 µM, the “Percent Growth” value (RXF-631; [2]) was -29% and the “Percent Growth” value (RXF-631; Log10 Concentration -5.0) was 18%. For the same compound, the “Percent Growth” value (RXF-631; Log10 Concentration -6.0, 1 µM) was 38%, the “Percent Growth” value (RXF-631; [3]) was 83% and the “Percent Growth” value (RXF-631; Log10 Concentration -8.0) was 106%. The TGI (RXF-631; PG=0) was 24.3 µM, the GI50 (RXF-631; PG=+50) was 0.536 µM and the CC50 (RXF-631; read-out: LC-50, PG=-50) was greater than 100 µM. The “effect against many kinds of cancer” value (Human tumor cell lines) was “effective against many kinds of cancer”, the “Percent Growth” value (SF-539; [2]) was -33% and the “Percent Growth” value (SF-539; Log10 Concentration -5.0) was -43%. For the same compound, the “Percent Growth” value (SF-539; Log10 Concentration -6.0, 1 µM) was 30%, the “Percent Growth” value (SF-539; [3]) was 99% and the “Percent Growth” value (SF-539; Log10 Concentration -8.0) was 116%. It also gave a TGI (SF-539; PG=0) of 2.6 µM, a GI50 (SF-539; PG=+50) of 0.518 µM and a CC50 (SF-539; read-out: LC-50, PG=-50) greater than 100 µM. For the same compound, the “Percent Growth” value (OVCAR-3; [2]) was -31%, the “Percent Growth” value (OVCAR-3; Log10 Concentration -5.0) was 10% and the “Percent Growth” value (OVCAR-3; Log10 Concentration -6.0, 1 µM) was 74%. The “Percent Growth” value (OVCAR-3; [3]) was 91%, the “Percent Growth” value (OVCAR-3; Log10 Concentration -8.0) was 98% and the TGI (OVCAR-3; PG=0) was 17.3 µM. For the same compound, the GI50 (OVCAR-3; PG=+50) was 2.39 µM, the CC50 (OVCAR-3; read-out: LC-50, PG=-50) was greater than 100 µM and the “Percent Growth” value (UACC-62; [2]) was -44%. For the same compound, the “Percent Growth” value (UACC-62; Log10 Concentration -5.0) was 31%, the “Percent Growth” value (UACC-62; Log10 Concentration -6.0, 1 µM) was 88% and the “Percent Growth” value (UACC-62; [3]) was 118%. For the same compound, the “Percent Growth” value (UACC-62; Log10 Concentration -8.0) was 129%, the TGI (UACC-62; PG=0) was 26.1 µM and the GI50 (UACC-62; PG=+50) was 4.68 µM. The CC50 (UACC-62; read-out: LC-50, PG=-50) was greater than 100 µM.
